From article PMC7959488, “Identify potent SARS-CoV-2 main protease inhibitors via accelerated free energy perturbation-based virtual screening of existing drugs” (Proceedings of the National Academy of Sciences of the …, 2020)
Read-outs that look alike come from different tables or passages of the source.

Assays:
[1] = test system: BRD4; set-up: method as in Aldeghi et al. (18); details: experimental binding free energy; ligand named by PDB code of its complex; ref Aldeghi et al. (18); cited from earlier work
[2] = biological target: T1, SARS-CoV-2 M^pro (Severe acute respiratory syndrome coronavirus 2, UniProt P0DTD1); assay: biochemical; details: for ΔGexp: calculated from corresponding Ki values
[3] = biological target: T1, SARS-CoV-2 M^pro
[4] = test system: norovirus; details: cited from earlier work
[5] = test system: SARS-CoV-2; details: cited from earlier work; for activity in vitro against SARS-CoV-2: molecular targets not reported
[6] = test system: vesicular stomatitis virus (VSV); format: cell-based
[7] = biological target: T1, SARS-CoV-2 M^pro; details: for UEMM-GBSA: unsigned error |ΔGMM-GBSA − ΔGexp|; for UEMM-PBSA: unsigned error |ΔGMM-PBSA − ΔGexp|
[8] = test system: SARS-CoV; details: at 1.0 μM; cited from earlier work
[9] = test system: human ether-a-go-go−related gene (hERG) encoded potassium channel Kv11.1; details: cited from earlier work
[10] = test system: HIV-1 protease; details: experimental binding free energy; ligand named by PDB code of its complex; cited from earlier work
[11] = test system: microsomal prostaglandin E2 synthase 1 (mPGES-1); details: cited from earlier work
[12] = test system: human factor Xa; details: experimental binding free energy; ligand named by PDB code of its complex; cited from earlier work
[13] = biological target: T1, SARS-CoV-2 M^pro; details: ref [6], [36]; read-out: IC50 (µM), values in the brackets obtained from other published works (converted); cited from earlier work
[14] = converted from IC50 based on the assumption of the competitive inhibition without covalent binding, read-out: Ki
[15] = substrate concentration 20 µM, 500 nM enzyme, ∼50 values estimated from single-concentration assay, read-out: IC50

In the case of `Cc1sc2c(c1C)C(c1ccc(Cl)cc1)=N[C@@H](CC(=O)OC(C)(C)C)c1nnc(C)n1-2` [3MXF], the “∆Gexp” value [1] is listed as -9.6 kcal/mol.

`CCOc1nc2cccc(C(=O)O)c2n1Cc1ccc(-c2ccccc2-c2nnn[nH]2)cc1` [Candesartan, candesartan] showed a Ki [2] of 0.62 µM.

In the case of `CCN(CC)CCCC(C)Nc1ccnc2cc(Cl)ccc12` (stereo not drawn) [Chloroquine, chloroquine], the UEFEP-ABFE [3] is listed as 1.5 kcal/mol, the “sensitivity of norovirus to treatment” value [4] is listed as “hypersensitive” and the “activity in vitro against SARS-CoV-2” value [5] is listed as “active in vitro”. For the same compound, the “inhibition of VSV” value [6] was “no significant inhibition”, the UEMM-GBSA [7] was 24.7 kcal/mol and the UEMM-PBSA [7] was 16.1 kcal/mol. For the same compound, the “SARS-CoV replication reduced to” value [8] was 53% and the IC50 [9] was 2.5 µM.

In the case of `CCOc1nc2cccc(C(=O)OC(C)OC(=O)OC3CCCCC3)c2n1Cc1ccc(-c2ccccc2-c2nnn[nH]2)cc1` (stereo not drawn) [Candesartan cilexetil, candesartan cilexetil], the UEFEP-ABFE [3] is reported as 0.6 kcal/mol, the UEMM-GBSA [7] is reported as 29.1 kcal/mol and the UEMM-PBSA [7] is reported as 26.9 kcal/mol. It also gave a ΔGexp [2] of -9.2 kcal/mol, a Ki [2, 14] of 0.18 ± 0.02 µM and an IC50 [2, 15] of 2.8 ± 0.3 µM.

In the case of `Cc1coc(CN(C)C(=O)c2cccc(C(=O)N[C@@H](Cc3ccccc3)[C@H](O)CN(CC(C)C)S(=O)(=O)c3ccc(CO)cc3)c2)n1` [5UPZ], the “∆Gexp” value [10] is given as -12.5 kcal/mol.

For `O=S1(=O)N(Cc2ccccc2)[C@H](COc2ccccc2)[C@H](O)[C@@H](O)[C@@H](COc2ccccc2)N1Cc1ccccc1` [1AJV], the “∆Gexp” value [10] is listed as -10.5 kcal/mol.

For `CC(C)CN(CC(O)C(Cc1ccccc1)NC(=O)OC1COC2OCC(F)(F)C12)S(=O)(=O)c1ccc(N)cc1` (stereo not drawn) [4U8W], the “∆Gexp” value [10] is listed as -15.3 kcal/mol.

In the case of `CCN(CCO)CCCC(C)Nc1ccnc2cc(Cl)ccc12` (stereo not drawn) [Hydroxychloroquine, hydroxychloroquine], the UEFEP-ABFE [3] is listed as 1.1 kcal/mol, the “activity in vitro against SARS-CoV-2” value [5] is listed as “active in vitro” and the “inhibition of VSV” value [6] is listed as “no significant inhibition”. The IC50 ([9]; read-out: IC50, hERG Kv11.1 block) was 10.7 µM.

For `COc1cc(OC)c2c(=O)[nH]c(-c3cc(C)c(OCCO)c(C)c3)nc2c1` [4MR4], the “∆Gexp” value [1] is listed as -7.8 kcal/mol.

In the case of `OCCN(CCO)c1nc(N2CCCCC2)c2nc(N(CCO)CCO)nc(N3CCCCC3)c2n1` [DIP, dipyridamole], the EC50 ([5]; raw antiviral activity data reported separately, read-out: EC50, suppression of SARS-CoV-2 replication) is listed as 0.1 µM and the “inhibition of mPGES-1” value [11] is listed as “weak inhibitor”.

For `CC(=O)NS(=O)(=O)c1ccc(N)cc1` [Sulfacetamide], the UEFEP-ABFE [3] was 0.5 kcal/mol, the UEMM-GBSA [7] was 6.4 kcal/mol and the UEMM-PBSA [7] was 7.3 kcal/mol. The IC50 [2] was about 50 µM, the Ki [2] was about 3.27 µM and the ΔGexp [2] was -7.5 kcal/mol.

For `COc1cc(Cl)cc(C(=O)Nc2ccc(Cl)cn2)c1NC(=O)c1scc(CN(C)C2=NCCO2)c1Cl` [1MQ6], the “∆Gexp” value [12] is given as -15.2 kcal/mol.

In the case of `CC(C)(C)NC(=O)[C@@H]1CN(Cc2cccnc2)CCN1C[C@@H](O)C[C@@H](Cc1ccccc1)C(=O)N[C@H]1c2ccccc2C[C@H]1O` [Indinavir], the “activity in vitro against SARS-CoV-2” value [5] is given as “active in vitro”.

In the case of `O=C(N[C@H]1c2ccccc2C[C@H]1O)[C@@H](C[C@@H](O)[C@@H](OCc1ccccc1)C(=O)N[C@H]1c2ccccc2C[C@H]1O)OCc1ccccc1` [1D4I], the “∆Gexp” value [10] is given as -12.1 kcal/mol.

For `CCN(CC)C(=S)SSC(=S)N(CC)CC` [Disulfiram, disulfiram], the UEFEP-ABFE [3] was 2.2 kcal/mol, the UEFEP-ABFE ([3]; listed as disulfiram) was “about 2.2 kcal/mol” and the ΔGexp [2] was -8.8 kcal/mol.

For `CC(C)Nc1nc2cc(Cl)c(Cl)cc2n1[C@H]1O[C@@H](CO)[C@H](O)[C@@H]1O` [Maribavir], the UEFEP-ABFE ([3]; unsigned error |ΔGFEP-ABFE − ΔGexp|) was 2.2 kcal/mol, the UEFEP-ABFE ([3]; unsigned error |ΔGFEP-ABFE − ΔGexp|, listed as maribavir) was “about 2.2 kcal/mol” and the UEMM-GBSA [7] was 25.7 kcal/mol. The UEMM-PBSA [7] was 19.5 kcal/mol.

For `COC(=O)N[C@H](C(=O)N[C@@H](Cc1ccccc1)[C@@H](O)CN(Cc1ccc(-c2ccccn2)cc1)NC(=O)[C@@H](NC(=O)OC)C(C)(C)C)C(C)(C)C` [Atazanavir, atazanavir], the UEFEP-ABFE [3] is listed as 0.6 kcal/mol, the IC50 [13] is listed as 10 µM and the UEMM-GBSA [7] is listed as 30.6 kcal/mol. It also gave a UEMM-PBSA [7] of 24.4 kcal/mol, a ΔGexp [2] of -8.6 kcal/mol and a Ki [2, 14] of 0.49 ± 0.02 µM. For the same compound, the IC50 [2, 15] was 7.5 ± 0.3 µM.

In the case of `CC(C(=O)N1CCOCC1)N1CCC(NS(=O)(=O)c2cc3ccc(Cl)cc3s2)C1=O` (stereo not drawn) [2J34], the “∆Gexp” value [12] is listed as -10.7 kcal/mol.

For `C=C(C)CNC(=O)C1N(C(=O)C(O)C(Cc2ccccc2)NC(=O)COc2c(C)cc(N)cc2C)CSC1(C)C` (stereo not drawn) [3A2O], the “∆Gexp” value [10] is given as -12.4 kcal/mol.
